{
  "source": "the NIST ThermoML archive (doi:10.1021/je700261b)",
  "conditions": "Liquid",
  "note": "± gives the expanded uncertainty stated by the source.",
  "data": [
    {"compound": "CCCCO", "note": "[butan-1-ol]", "values": [
      {"measurement": "mass density", "setting": "313.08 K, 1006 kPa", "value": "795.22 ± 0.46", "unit": "kg/m3"},
      {"measurement": "mass density", "setting": "313.08 K, 2017 kPa", "value": "796.08 ± 0.47", "unit": "kg/m3"},
      {"measurement": "mass density", "setting": "313.08 K, 3007 kPa", "value": "796.85 ± 0.47", "unit": "kg/m3"},
      {"measurement": "mass density", "setting": "313.08 K, 4010 kPa", "value": "797.64 ± 0.48", "unit": "kg/m3"},
      {"measurement": "mass density", "setting": "313.08 K, 5016 kPa", "value": "798.44 ± 0.49", "unit": "kg/m3"},
      {"measurement": "mass density", "setting": "313.08 K, 6017 kPa", "value": "799.22 ± 0.5", "unit": "kg/m3"},
      {"measurement": "mass density", "setting": "313.08 K, 7011 kPa", "value": "800 ± 0.5", "unit": "kg/m3"},
      {"measurement": "mass density", "setting": "313.08 K, 8006 kPa", "value": "800.77 ± 0.51", "unit": "kg/m3"},
      {"measurement": "mass density", "setting": "313.08 K, 9019 kPa", "value": "801.53 ± 0.52", "unit": "kg/m3"},
      {"measurement": "mass density", "setting": "313.08 K, 10008 kPa", "value": "802.27 ± 0.53", "unit": "kg/m3"},
      {"measurement": "mass density", "setting": "313.08 K, 11014 kPa", "value": "803.01 ± 0.54", "unit": "kg/m3"},
      {"measurement": "mass density", "setting": "313.08 K, 12016 kPa", "value": "803.73 ± 0.54", "unit": "kg/m3"},
      {"measurement": "mass density", "setting": "313.08 K, 13016 kPa", "value": "804.46 ± 0.55", "unit": "kg/m3"},
      {"measurement": "mass density", "setting": "313.08 K, 14013 kPa", "value": "805.18 ± 0.56", "unit": "kg/m3"},
      {"measurement": "mass density", "setting": "313.08 K, 15010 kPa", "value": "805.91 ± 0.57", "unit": "kg/m3"},
      {"measurement": "mass density", "setting": "313.08 K, 16003 kPa", "value": "806.58 ± 0.58", "unit": "kg/m3"},
      {"measurement": "mass density", "setting": "313.08 K, 16999 kPa", "value": "807.29 ± 0.59", "unit": "kg/m3"},
      {"measurement": "mass density", "setting": "313.08 K, 17999 kPa", "value": "807.98 ± 0.6", "unit": "kg/m3"},
      {"measurement": "mass density", "setting": "313.08 K, 19024 kPa", "value": "808.67 ± 0.61", "unit": "kg/m3"},
      {"measurement": "mass density", "setting": "313.08 K, 20005 kPa", "value": "809.33 ± 0.62", "unit": "kg/m3"},
      {"measurement": "mass density", "setting": "313.08 K, 21013 kPa", "value": "810.09 ± 0.62", "unit": "kg/m3"},
      {"measurement": "mass density", "setting": "313.08 K, 22003 kPa", "value": "810.75 ± 0.63", "unit": "kg/m3"},
      {"measurement": "mass density", "setting": "313.08 K, 23024 kPa", "value": "811.41 ± 0.64", "unit": "kg/m3"},
      {"measurement": "mass density", "setting": "313.08 K, 24027 kPa", "value": "812.09 ± 0.65", "unit": "kg/m3"},
      {"measurement": "mass density", "setting": "313.08 K, 24234 kPa", "value": "812.21 ± 0.65", "unit": "kg/m3"},
      {"measurement": "mass density", "setting": "323.05 K, 999 kPa", "value": "787.38 ± 0.46", "unit": "kg/m3"},
      {"measurement": "mass density", "setting": "323.05 K, 2026 kPa", "value": "788.22 ± 0.47", "unit": "kg/m3"},
      {"measurement": "mass density", "setting": "323.05 K, 3007 kPa", "value": "789.03 ± 0.48", "unit": "kg/m3"},
      {"measurement": "mass density", "setting": "323.05 K, 4024 kPa", "value": "789.91 ± 0.48", "unit": "kg/m3"},
      {"measurement": "mass density", "setting": "323.05 K, 5012 kPa", "value": "790.75 ± 0.49", "unit": "kg/m3"},
      {"measurement": "mass density", "setting": "323.05 K, 6016 kPa", "value": "791.57 ± 0.5", "unit": "kg/m3"},
      {"measurement": "mass density", "setting": "323.05 K, 7023 kPa", "value": "792.4 ± 0.51", "unit": "kg/m3"},
      {"measurement": "mass density", "setting": "323.05 K, 8004 kPa", "value": "793.16 ± 0.52", "unit": "kg/m3"},
      {"measurement": "mass density", "setting": "323.05 K, 9009 kPa", "value": "793.98 ± 0.53", "unit": "kg/m3"},
      {"measurement": "mass density", "setting": "323.05 K, 10007 kPa", "value": "794.78 ± 0.53", "unit": "kg/m3"},
      {"measurement": "mass density", "setting": "323.05 K, 11004 kPa", "value": "795.57 ± 0.54", "unit": "kg/m3"},
      {"measurement": "mass density", "setting": "323.05 K, 11995 kPa", "value": "796.32 ± 0.55", "unit": "kg/m3"},
      {"measurement": "mass density", "setting": "323.05 K, 13007 kPa", "value": "797.09 ± 0.56", "unit": "kg/m3"},
      {"measurement": "mass density", "setting": "323.05 K, 14022 kPa", "value": "797.85 ± 0.57", "unit": "kg/m3"},
      {"measurement": "mass density", "setting": "323.05 K, 14989 kPa", "value": "798.63 ± 0.58", "unit": "kg/m3"},
      {"measurement": "mass density", "setting": "323.05 K, 16006 kPa", "value": "799.33 ± 0.59", "unit": "kg/m3"},
      {"measurement": "mass density", "setting": "323.05 K, 16998 kPa", "value": "800.1 ± 0.6", "unit": "kg/m3"},
      {"measurement": "mass density", "setting": "323.05 K, 18001 kPa", "value": "800.84 ± 0.61", "unit": "kg/m3"},
      {"measurement": "mass density", "setting": "323.05 K, 19025 kPa", "value": "801.56 ± 0.62", "unit": "kg/m3"},
      {"measurement": "mass density", "setting": "323.05 K, 19993 kPa", "value": "802.28 ± 0.63", "unit": "kg/m3"},
      {"measurement": "mass density", "setting": "323.05 K, 21032 kPa", "value": "803.06 ± 0.64", "unit": "kg/m3"},
      {"measurement": "mass density", "setting": "323.05 K, 22006 kPa", "value": "803.74 ± 0.65", "unit": "kg/m3"},
      {"measurement": "mass density", "setting": "323.05 K, 22993 kPa", "value": "804.41 ± 0.66", "unit": "kg/m3"},
      {"measurement": "mass density", "setting": "323.05 K, 24012 kPa", "value": "805.16 ± 0.67", "unit": "kg/m3"},
      {"measurement": "mass density", "setting": "323.05 K, 24418 kPa", "value": "805.43 ± 0.67", "unit": "kg/m3"},
      {"measurement": "mass density", "setting": "332.93 K, 1013 kPa", "value": "779.33 ± 0.47", "unit": "kg/m3"},
      {"measurement": "mass density", "setting": "332.93 K, 2026 kPa", "value": "780.27 ± 0.47", "unit": "kg/m3"},
      {"measurement": "mass density", "setting": "332.93 K, 3014 kPa", "value": "781.21 ± 0.48", "unit": "kg/m3"},
      {"measurement": "mass density", "setting": "332.93 K, 4006 kPa", "value": "782.04 ± 0.49", "unit": "kg/m3"},
      {"measurement": "mass density", "setting": "332.93 K, 5000 kPa", "value": "782.91 ± 0.5", "unit": "kg/m3"},
      {"measurement": "mass density", "setting": "332.93 K, 6013 kPa", "value": "783.78 ± 0.51", "unit": "kg/m3"},
      {"measurement": "mass density", "setting": "332.93 K, 6997 kPa", "value": "784.6 ± 0.51", "unit": "kg/m3"},
      {"measurement": "mass density", "setting": "332.93 K, 8003 kPa", "value": "785.5 ± 0.52", "unit": "kg/m3"},
      {"measurement": "mass density", "setting": "332.93 K, 9005 kPa", "value": "786.32 ± 0.53", "unit": "kg/m3"},
      {"measurement": "mass density", "setting": "332.93 K, 10001 kPa", "value": "787.17 ± 0.54", "unit": "kg/m3"},
      {"measurement": "mass density", "setting": "332.93 K, 10996 kPa", "value": "787.97 ± 0.55", "unit": "kg/m3"},
      {"measurement": "mass density", "setting": "332.93 K, 12003 kPa", "value": "788.8 ± 0.56", "unit": "kg/m3"},
      {"measurement": "mass density", "setting": "332.93 K, 12993 kPa", "value": "789.62 ± 0.57", "unit": "kg/m3"},
      {"measurement": "mass density", "setting": "332.93 K, 14001 kPa", "value": "790.38 ± 0.58", "unit": "kg/m3"},
      {"measurement": "mass density", "setting": "332.93 K, 15016 kPa", "value": "791.22 ± 0.59", "unit": "kg/m3"},
      {"measurement": "mass density", "setting": "332.93 K, 15998 kPa", "value": "791.96 ± 0.6", "unit": "kg/m3"},
      {"measurement": "mass density", "setting": "332.93 K, 16999 kPa", "value": "792.72 ± 0.61", "unit": "kg/m3"},
      {"measurement": "mass density", "setting": "332.93 K, 18009 kPa", "value": "793.53 ± 0.62", "unit": "kg/m3"},
      {"measurement": "mass density", "setting": "332.93 K, 18986 kPa", "value": "794.29 ± 0.63", "unit": "kg/m3"},
      {"measurement": "mass density", "setting": "332.93 K, 20043 kPa", "value": "795.08 ± 0.64", "unit": "kg/m3"},
      {"measurement": "mass density", "setting": "332.93 K, 21056 kPa", "value": "795.87 ± 0.65", "unit": "kg/m3"},
      {"measurement": "mass density", "setting": "332.93 K, 22040 kPa", "value": "796.59 ± 0.66", "unit": "kg/m3"},
      {"measurement": "mass density", "setting": "332.93 K, 23009 kPa", "value": "797.3 ± 0.67", "unit": "kg/m3"},
      {"measurement": "mass density", "setting": "332.93 K, 24001 kPa", "value": "798.04 ± 0.68", "unit": "kg/m3"},
      {"measurement": "mass density", "setting": "332.93 K, 24515 kPa", "value": "798.46 ± 0.68", "unit": "kg/m3"}
    ]}
  ]
}
